In the NIST ThermoML archive (doi:10.1016/j.fluid.2010.08.010):
Numbers after ± are expanded uncertainties.

Conditions: 293.15 K; 101.33 kPa; Liquid; Pycnometric method

SMILES	mass density [kg/m3]
Clc1ccccc1 [chlorobenzene]	1106 ± 6.3
CN(C)C=O [dimethylformamide]	948.7 ± 5.9

Same assay, conditions: 298.15 K; 101.33 kPa; Liquid; Pycnometric method

SMILES	mass density [kg/m3]
Cc1ccccc1C [1,2-dimethylbenzene]	875.9 ± 5.8
CC#N [acetonitrile]	776.5 ± 1.2
C=CC#N [acrylonitrile]	800.3 ± 5.7
Nc1ccccc1 [aniline]	1017.3 ± 6.1
CCCCCCO [hexan-1-ol]	815.3 ± 1.2
O=[N+]([O-])c1ccccc1 [nitrobenzene]	1198 ± 6.5
